Experiment: Thermodynamic solubility in TBS/Ca2+ buffer
Type: physicochemical
Excerpt: Next, we quantified the solubility of at least one representative of each new class and of one parent bisacylhydrazone in aqueous media (Table 1).

O=C(CCc1ccc(O[C@@H]2O[C@H](CO)[C@H](O)[C@H](O)[C@H]2O)cc1)Nc1ccc(CCc2ccc(NC(=O)CCc3ccc(O[C@@H]4O[C@H](CO)[C@H](O)[C@H](O)[C@H]4O)cc3)cc2S(=O)(=O)O)c(S(=O)(=O)O)c1 [Compound L2]
solubility (TBS/Ca2+ buffer, pH 7.4, thermodynamic from solid, aqueous buffer, from solid, read-out: Solubility S (dissolved from solid form in aqueous buffer)): > 1500 µM | Increase in solubility versus parent bisacylhydrazones (pH 7.4): over 1000 fold | solubility thermodynamic (pH 7.4, aqueous buffer, thermodynamic from solid, TBS/Ca2+ buffer w/o DMSO, N=1, read-out: Solubility S (thermodynamic)): > 1500 µM

Source: article PMC10107299, “Neutralizing the Impact of the Virulence Factor LecA from Pseudomonas aeruginosa on Human Cells with New Glycomimetic Inhibitors” (Angewandte Chemie (International Ed. in English), 2023)
